Values of other authors, collected in patent US20070218119A1, “STEROL ENRICHED MIXED LAMMELARITY AMPHOTERICIN INTERCALATING LIPOSOMES IN SALINE AND THE PROCESS FOR THEIR PREPARATION” (priority 2004, published 2007).

Conditions: conventional Amphotericin B mixed with 0.9% Sodium Chloride (Martindale)

C[C@@H]1[C@H](O)[C@@H](C)/C=C/C=C/C=C/C=C/C=C/C=C/C=C/[C@H](O[C@@H]2O[C@H](C)[C@@H](O)[C@H](N)[C@@H]2O)C[C@@H]2O[C@](O)(C[C@@H](O)C[C@@H](O)[C@H](O)CC[C@@H](O)C[C@@H](O)CC(=O)O[C@H]1C)C[C@H](O)[C@H]2C(=O)O [conventional Amphotericin B, Amphotericin B]
precipitation in 0.9% Sodium Chloride: precipitation of Amphotericin B
